From patent US6858591B2, “Antibiotic AA 896 analogs” (Wyeth Holdings Corporation, priority 2001, dated 2005) come the findings set out here.

What all share (test): In vitro MIC, broth dilution
Format in all cases: cell-based

In assay [1] the test system is C. albicans GC 3066. The settings on record: Candida albicans, GC3066; C. albicans GC 3066; read-out: MIC.
Assay [2] has as its system E. coli GC 2203. Particulars: Escherichia coli, GC2203; E. coli GC 2203; read-out: MIC.
For assay [3], the system named is E. coli GC 4560. The settings on record: Escherichia coli, GC4560; E. coli GC 4560; read-out: MIC.
Assay [4] relates to E. coli GC 3226. The settings on record: Escherichia coli, GC3226; E. coli GC 3226; read-out: MIC.
Assay [5] concerns E. coli GC 4559. The settings on record: Escherichia coli, GC4559; E. coli GC 4559; read-out: MIC.
The subject of assay [6] is E. cloacae GC 3783. The settings on record: Enterobacter cloacae, GC3783; E. cloacae GC 3783; read-out: MIC.
Assay [7] has as its system P. aeruginosa GC 4532. Particulars: Pseudomonas aeruginosa, GC4532; P. aeruginosa GC 4532; read-out: MIC.
For assay [8], the system named is S. marcescens GC 4077. Particulars: Serratia marcescens, GC4077; S. marcescens GC 4077; read-out: MIC.
Assay [9] concerns M. morganii GC 4531. Particulars: Morganella morganii, GC4531; M. morganii GC 4531; read-out: MIC.
The subject of assay [10] is K. pneumoniae GC 4534. Particulars: Klebsiella pneumoniae, GC4534; K. pneumoniae GC 4534; read-out: MIC.
The test system of assay [11] is E. faecalis GC 842. Particulars: Enterococcus faecalis, GC842; E. faecalis GC 842; read-out: MIC. As for the experimental part: (§1) The minimum inhibitory concentration (MIC), the lowest concentration of the antibiotic which inhibits growth of the test organism, is determined by the broth dilution method using Muller-Hinton II […] (Baltimore Biological Laboratories) following the recommendations of National Committee for Clinical Laboratory Standards. [Reference for the Methods for dilution antimicrobial susceptibility tests for bacteria that grow aerobically: National Committee for Clinical Laboratory Standards, 1997. Approved standard M7-A National Committee for Clinical Laboratory Standards, Wayne, Pa.] An inoculum level of 5×10^5 CFU/ml, and a range of antibiotic concentrations (64-0.06 μg/ml) is used. The MIC is determined after the microtiter plates are incubated for 18 hours at 35° C. in an ambient air incubator. The test organisms comprise a spectrum of gram-positive bacteria including Staphylococcus sp., Streptococcus sp. and Enterococcus sp. These organisms include recent clinical isolates that are resistant to methicillin, penicillin and vancomycin.

The subject of assay [12] is CNS GC 4537. The settings on record: CNS GC 4537; read-out: MIC. On the procedure: as §1
Assay [13] has as its system CNS GC 4538. Particulars: CNS GC 4538; read-out: MIC. As for the experimental part: as §1
Assay [14] deals with S. aureus GC 2216. Particulars: Staphylococcus aureus, GC2216; S. aureus GC 2216; read-out: MIC. On the procedure:
as §1

The test system of assay [15] is E. faecalis GC 4555. The settings on record: Enterococcus faecalis, GC4555; E. faecalis GC 4555; read-out: MIC. As for the experimental part:
as §1

Assay [16] deals with S. aureus GC 4536. Particulars: Staphylococcus aureus, GC4536; S. aureus GC 4536; read-out: MIC. On the procedure: as §1
Assay [17] relates to E. faecalis GC 2242. The settings on record: Enterococcus faecalis, GC2242; E. faecalis GC 2242; read-out: MIC. As for the experimental part: as §1
In assay [18] the test system is S. aureus GC 1131. The settings on record: Staphylococcus aureus, GC1131; S. aureus GC 1131; read-out: MIC. On the procedure:
as §1

Assay [19] relates to CNS GC 4547. The settings on record: CNS GC 4547; read-out: MIC. As for the experimental part:
as §1

In assay [20] the test system is P. aeruginosa GC 2214. Particulars: Pseudomonas aeruginosa, GC2214; P. aeruginosa GC 2214; read-out: MIC.

In brackets after ≈: the same amount, converted by molar mass. Some results are limits rather than exact numbers.

Take `COc1ccc(Cn2c(=O)ccn([C@@H]3OC([C@H](O)[C@H](NCCCNC(=O)[C@@H](N)[C@@H](O)C(C)C)C(=O)OC(C)(C)C)[C@@H](O[Si](C)(C)C(C)(C)C)[C@H]3O[Si](C)(C)C(C)(C)C)c2=O)cc1` (stereo partly drawn) [Example 2, tert-Butyl (2S,3R)-2-[(3-{[(2S,3S)-2-amino-3-hydroxy-4-methylpentanoyl]amino}propyl)amino]-3-[(3R,4R,5R)-3,4-bis{[tert-butyl(dimethyl)silyl]oxy}-5-(3-(4-methoxybenzyl)-2,4-dioxo-3,4-dihydro-1(2H)-pyrimidinyl)tetrahydro-2-furanyl]-3-hydroxypropanoate]: the MIC in assay [1], in [2], in assay [3], in assay [4], in [5] and in assay [6] was more than 128 mg/L throughout. The MIC in [7] was more than 128 mg/L; in [8] it was more than 128 mg/L; in assay [9], more than 128 mg/L; in assay [10], more than 128 mg/L; in assay [11] it was 8 mg/L (≈ 8.81 µM); in [12] it was 4 mg/L (≈ 4.4 µM). Besides, the MIC came out at 4 mg/L (≈ 4.4 µM) in assay [13]; 4 mg/L (≈ 4.4 µM) in assay [14]; 4 mg/L (≈ 4.4 µM) in assay [15]; 16 mg/L (≈ 17.6 µM) in assay [16]; 4 mg/L (≈ 4.4 µM) in assay [17]; 4 mg/L (≈ 4.4 µM) in [18]. Further, the results for the MIC in assay [19] and in assay [20] were 16 mg/L (≈ 17.6 µM) and more than 128 mg/L, respectively.

In the case of `COc1ccc(Cn2c(=O)ccn([C@@H]3OC([C@H](O)[C@H](NCCCNC(=O)[C@H](CC(C)C)NC(=O)OCc4ccccc4)C(=O)OC(C)(C)C)[C@@H](O[Si](C)(C)C(C)(C)C)[C@H]3O[Si](C)(C)C(C)(C)C)c2=O)cc1` (stereo partly drawn) [Example 4, tert-Butyl (5S,12S)-12-[(R)-[(3R,4R,5R)-3,4-bis{[tert-butyl(dimethyl)silyl]oxy}-5-(3-(4-methoxybenzyl)-2,4-dioxo-3,4-dihydro-1(2H)-pyrimidinyl)tetrahydro-2-furanyl](hydroxy)methyl]-5-isobutyl-3,6-dioxo-1-phenyl-2-oxa-4,7,11-triazatridecan-13-oate], the MIC in assay [1], in assay [2], in assay [3], in assay [4], in assay [5] and in assay [6] was more than 128 mg/L each time. For the same molecule, the MIC in [7], in assay [8], in [9], in assay [10], in assay [11] and in assay [12] was more than 128 mg/L each time. In addition, the MIC in assay [13] is more than 128 mg/L; in [14], more than 128 mg/L; in [15], more than 128 mg/L; in assay [16], more than 128 mg/L; in [17] it was 128 mg/L (≈ 125 µM); in assay [18], more than 128 mg/L. The MIC is more than 128 mg/L in assay [19] and 128 mg/L (≈ 125 µM) in [20].

Consider `COc1ccc(Cn2c(=O)ccn([C@@H]3OC([C@H](O)[C@H](NCCCNC(=O)[C@@H](N)CC(C)C)C(=O)OC(C)(C)C)[C@@H](O[Si](C)(C)C(C)(C)C)[C@H]3O[Si](C)(C)C(C)(C)C)c2=O)cc1` (stereo partly drawn) [Example 5, tert-Butyl (2S,3R)-2-[(3-{[(2S)-2-amino-4-methylpentanoyl]amino}propyl)amino]-3-[(3R,4R,5R)-3,4-bis{[tert-butyl(dimethyl)silyl]oxy}-5-(3-(4-methoxybenzyl)-2,4-dioxo-3,4-dihydro-1(2H)-pyrimidinyl)tetrahydro-2-furanyl]-3-hydroxypropanoate], for which the MIC in [1], in assay [2], in assay [3], in assay [4], in [5] and in [6] was more than 128 mg/L in each case. For the same molecule, the MIC was more than 128 mg/L in assay [7]; more than 128 mg/L in assay [8]; more than 128 mg/L in assay [9]; more than 128 mg/L in assay [10]; 16 mg/L (≈ 17.9 µM) in [11]; 4 mg/L (≈ 4.48 µM) in assay [12]. The MIC in assay [13] was 8 mg/L (≈ 8.97 µM); in assay [14] it was 8 mg/L (≈ 8.97 µM); in [15], 8 mg/L (≈ 8.97 µM); in [16], 16 mg/L (≈ 17.9 µM); in assay [17], 4 mg/L (≈ 4.48 µM); in assay [18], 32 mg/L (≈ 35.9 µM). Moreover, the MIC in assay [19] was 64 mg/L (≈ 71.7 µM); in assay [20], more than 128 mg/L.

In the case of `CC(C)C[C@H](NC(=O)OCc1ccccc1)C(=O)NCCCN[C@H](C(=O)OC(C)(C)C)[C@@H](O)C1O[C@@H](n2ccc(=O)[nH]c2=O)[C@H](O[Si](C)(C)C(C)(C)C)[C@@H]1O[Si](C)(C)C(C)(C)C` (stereo partly drawn) [Example 6, tert-Butyl (5S,12S)-12-[(R)-[(3R,4R,5R)-3,4-bis{[tert-butyl(dimethyl)silyl]oxy}-5-(2,4-dioxo-3,4-dihydro-1(2H)-pyrimidinyl)tetrahydro-2-furanyl](hydroxy)methyl]-5-isobutyl-3,6-dioxo-1-phenyl-2-oxa-4,7,11-triazatridecan-13-oate], the MIC in assay [1] was more than 128 mg/L; in assay [2], more than 128 mg/L; in assay [3] it was 128 mg/L (≈ 141 µM); in [4], more than 128 mg/L; in assay [5], more than 128 mg/L; in assay [6], more than 128 mg/L. For the same molecule, the MIC in assay [7] is 128 mg/L (≈ 141 µM); in [8], more than 128 mg/L; in assay [9], 128 mg/L (≈ 141 µM); in [10] it was more than 128 mg/L; in assay [11] it was more than 128 mg/L; in assay [12], more than 128 mg/L. The MIC in assay [13] was more than 128 mg/L; in assay [14], more than 128 mg/L; in assay [15], more than 128 mg/L; in assay [16], more than 128 mg/L; in assay [17], 64 mg/L (≈ 70.6 µM); in [18] it was more than 128 mg/L. The values for the MIC in assay [19] and in [20] were more than 128 mg/L and 128 mg/L (≈ 141 µM), respectively.

`CC(C)C[C@H](N)C(=O)NCCCN[C@H](C(=O)OC(C)(C)C)[C@@H](O)C1O[C@@H](n2ccc(=O)[nH]c2=O)[C@H](O[Si](C)(C)C(C)(C)C)[C@@H]1O[Si](C)(C)C(C)(C)C` (stereo partly drawn) [Example 7, tert-Butyl (2S,3R)-2-[(3-{[(2S)-2-amino-4-methylpentanoyl]amino}propyl)amino]-3-[(3R,4R,5R)-3,4-bis{[tert-butyl(dimethyl)silyl]oxy}-5-(2,4-dioxo-3,4-dihydro-1(2H)-pyrimidinyl)tetrahydro-2-furanyl]-3-hydroxypropanoate]: the minimum inhibitory concentration (MIC) in assay [1] is 32 mg/L (≈ 41.4 µM); in [2], more than 128 mg/L; in assay [3] it was 32 mg/L (≈ 41.4 µM); in assay [4], more than 128 mg/L; in [5] it was more than 128 mg/L; in assay [6] it was 128 mg/L (≈ 166 µM). Besides, the MIC in assay [7] came to 128 mg/L (≈ 166 µM); in assay [8] it was 128 mg/L (≈ 166 µM); in assay [9], 128 mg/L (≈ 166 µM); in [10], 128 mg/L (≈ 166 µM); in assay [11], 2 mg/L (≈ 2.59 µM); in assay [12], 1 mg/L (≈ 1.3 µM). In addition, the MIC in [13] was 2 mg/L (≈ 2.59 µM); in assay [14] it was 2 mg/L (≈ 2.59 µM); in assay [15], 2 mg/L (≈ 2.59 µM); in [16], 1 mg/L (≈ 1.3 µM); in assay [17], 2 mg/L (≈ 2.59 µM); in [18], 1 mg/L (≈ 1.3 µM). Besides, the MIC is 2 mg/L (≈ 2.59 µM) in [19] and 128 mg/L (≈ 166 µM) in assay [20].

What is called MIC is the smallest concentration in the dilution series that meets the test's criterion for growth inhibition.
